22 compounds from US10100064B2, “Purine inhibitors of human phosphatidylinositol 3-kinase delta” (Merck Sharp & Dohme Corp., priority 2014, dated 2018) can be followed below.

Test [1] addresses T1, PI3Kalpha (Homo sapiens, UniProt P42336).
T1 construct: purchased Upstate; Millipore 14-602
In words: HTRF PI3K biochemical assay, alpha isoform (selectivity versus delta). Conditions: relative ratio PI3K-alpha IC50 value / PI3K-delta IC50 value. The method in brief: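 Recombinant PI3Kα (0.5 nM) pre-incubated 15 min with compound, then reacted 1 h at room temperature with 5 μM PIP2 and 100 μM ATP. After EDTA stop, PIP3 measured by HTRF displacement of biotin-PIP3 from GST-GRP1 PH domain (665/620 nm). 10-point dose response; IC50 corrected using a PIP3 standard curve.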
In general terms: TR-FRET usually uses a lanthanide donor and a delayed reading to cut background.

Test [2] has as its target T2, PI3Kdelta (Homo sapiens, UniProt O00329).
T2 construct: purchased Upstate; Millipore 14-604
As to the kind of experiment: HTRF PI3K biochemical assay, delta isoform. Conditions: 0.3 nM enzyme, 100 uM ATP, 5 uM PIP2, form screened (Neutral or TFA salt) given per compound. A digest of the protocol: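 PI3Kδ at 0.3 nM with 100 uM ATP and 5 uM PIP2, 10-point 3-fold dilutions, 15 min enzyme–compound pre-incubation, then 1 h reaction at room temperature. PIP3 formation detected by HTRF displacement of biotin-PIP3 from GST-GRP1-PH (665/620 nm ratio). IC50 corrected using a PIP3 standard curve.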

T1 sequence (P42336 whole entry): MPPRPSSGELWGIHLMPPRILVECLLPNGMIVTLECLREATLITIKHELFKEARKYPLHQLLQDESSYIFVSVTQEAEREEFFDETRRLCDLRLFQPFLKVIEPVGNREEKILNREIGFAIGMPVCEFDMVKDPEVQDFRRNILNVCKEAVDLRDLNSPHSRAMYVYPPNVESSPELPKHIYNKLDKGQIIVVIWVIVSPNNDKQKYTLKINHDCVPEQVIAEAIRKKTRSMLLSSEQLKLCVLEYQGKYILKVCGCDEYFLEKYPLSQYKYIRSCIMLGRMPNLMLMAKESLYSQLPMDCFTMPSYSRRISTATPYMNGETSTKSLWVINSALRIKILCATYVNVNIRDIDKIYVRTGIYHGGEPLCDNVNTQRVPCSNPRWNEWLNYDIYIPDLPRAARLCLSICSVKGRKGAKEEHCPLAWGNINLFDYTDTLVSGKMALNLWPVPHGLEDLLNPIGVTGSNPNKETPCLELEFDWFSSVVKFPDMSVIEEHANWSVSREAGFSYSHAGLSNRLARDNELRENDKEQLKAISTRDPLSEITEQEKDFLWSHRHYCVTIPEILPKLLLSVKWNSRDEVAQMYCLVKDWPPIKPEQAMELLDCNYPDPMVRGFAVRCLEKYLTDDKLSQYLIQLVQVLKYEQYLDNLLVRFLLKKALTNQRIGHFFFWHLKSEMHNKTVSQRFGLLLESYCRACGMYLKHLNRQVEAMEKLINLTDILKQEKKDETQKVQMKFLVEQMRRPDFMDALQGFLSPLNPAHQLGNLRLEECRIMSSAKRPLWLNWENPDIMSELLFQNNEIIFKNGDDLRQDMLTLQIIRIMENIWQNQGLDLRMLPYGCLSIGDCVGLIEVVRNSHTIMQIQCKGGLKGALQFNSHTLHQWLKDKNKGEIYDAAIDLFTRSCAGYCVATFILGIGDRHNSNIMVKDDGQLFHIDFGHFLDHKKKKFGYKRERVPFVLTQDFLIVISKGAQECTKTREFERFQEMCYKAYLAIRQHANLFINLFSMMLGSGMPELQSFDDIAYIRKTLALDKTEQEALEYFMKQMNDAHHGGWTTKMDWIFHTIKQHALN
T1 sequence (P27986 whole entry partner): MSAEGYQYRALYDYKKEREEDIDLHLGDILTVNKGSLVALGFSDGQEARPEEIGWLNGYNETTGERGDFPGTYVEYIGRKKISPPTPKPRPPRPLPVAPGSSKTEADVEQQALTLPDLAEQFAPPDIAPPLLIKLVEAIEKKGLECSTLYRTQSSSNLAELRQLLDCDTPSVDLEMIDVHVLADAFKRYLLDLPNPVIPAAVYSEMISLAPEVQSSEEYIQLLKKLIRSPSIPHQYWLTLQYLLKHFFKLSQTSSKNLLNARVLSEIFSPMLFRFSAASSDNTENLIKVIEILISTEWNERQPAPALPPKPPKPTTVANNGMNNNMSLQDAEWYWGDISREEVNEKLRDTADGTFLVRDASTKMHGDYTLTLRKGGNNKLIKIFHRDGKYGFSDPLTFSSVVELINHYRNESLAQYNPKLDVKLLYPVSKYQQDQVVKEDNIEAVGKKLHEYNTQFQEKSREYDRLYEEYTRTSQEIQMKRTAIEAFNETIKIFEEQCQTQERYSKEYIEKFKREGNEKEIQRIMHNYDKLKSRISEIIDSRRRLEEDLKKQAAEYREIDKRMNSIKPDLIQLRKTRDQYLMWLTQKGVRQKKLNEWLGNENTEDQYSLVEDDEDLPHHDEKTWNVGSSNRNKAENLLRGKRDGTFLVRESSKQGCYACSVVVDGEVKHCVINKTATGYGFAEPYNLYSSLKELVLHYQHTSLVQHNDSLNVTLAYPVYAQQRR
T2 sequence (O00329 whole entry): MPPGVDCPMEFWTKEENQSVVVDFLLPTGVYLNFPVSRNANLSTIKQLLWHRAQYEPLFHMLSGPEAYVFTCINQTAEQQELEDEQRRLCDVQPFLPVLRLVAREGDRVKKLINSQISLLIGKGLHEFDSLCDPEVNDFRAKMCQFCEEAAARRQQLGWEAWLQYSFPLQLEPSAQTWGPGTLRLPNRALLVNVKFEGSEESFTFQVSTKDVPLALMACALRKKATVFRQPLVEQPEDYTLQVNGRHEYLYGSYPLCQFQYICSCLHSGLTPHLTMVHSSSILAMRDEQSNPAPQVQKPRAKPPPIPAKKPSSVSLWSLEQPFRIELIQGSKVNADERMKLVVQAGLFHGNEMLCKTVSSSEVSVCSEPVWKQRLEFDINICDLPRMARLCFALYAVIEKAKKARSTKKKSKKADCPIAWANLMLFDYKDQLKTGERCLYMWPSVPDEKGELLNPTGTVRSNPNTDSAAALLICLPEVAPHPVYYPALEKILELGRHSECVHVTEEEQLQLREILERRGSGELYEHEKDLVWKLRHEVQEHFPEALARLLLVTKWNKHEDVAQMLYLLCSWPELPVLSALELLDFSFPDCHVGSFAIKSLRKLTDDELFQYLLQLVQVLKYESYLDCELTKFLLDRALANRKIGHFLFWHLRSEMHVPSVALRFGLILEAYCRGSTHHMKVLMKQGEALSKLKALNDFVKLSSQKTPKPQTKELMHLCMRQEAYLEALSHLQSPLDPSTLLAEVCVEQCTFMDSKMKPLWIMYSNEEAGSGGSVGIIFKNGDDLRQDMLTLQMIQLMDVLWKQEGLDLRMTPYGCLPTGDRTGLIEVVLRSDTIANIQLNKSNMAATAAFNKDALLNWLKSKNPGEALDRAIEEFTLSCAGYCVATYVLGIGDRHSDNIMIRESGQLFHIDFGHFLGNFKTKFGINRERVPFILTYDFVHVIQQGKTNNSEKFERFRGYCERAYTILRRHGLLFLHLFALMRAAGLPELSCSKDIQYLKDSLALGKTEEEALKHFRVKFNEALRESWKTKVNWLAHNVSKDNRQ
T2 sequence (P27986 whole entry partner): as the sequence (P27986 whole entry partner) above

On to `CCn1c(-c2cnc(C)nc2)nc2c(NC3CCc4cnc(C(C)C)n4C3)ncnc21` (single isomer, unassigned) [Compound 3-2, (S or R)-9-ethyl-N-[3-(1-methylethyl)-5,6,7,8-tetrahydroimidazo[1,5-a]pyridin-6-yl)-8-(2-methylpyrimidin-5-yl)-9H-purin-6-amine], for which, in test [1], the “Selectivity versus PI3Kalpha” value is recorded as over 10. Moreover, in test [2], the half-inhibitory concentration (IC50) was 5.2 nM.

Consider `CCn1c(-c2cnc(C)nc2)nc2c(NC3CCc4ncc(C5CC5)n4C3)ncnc21` (single isomer, unassigned) [Compound 4-1, (S or R)-N-(3-cyclopropyl 5,6,7,8-tetrahydroimidazo[1,2-a]pyridin-6-yl)-9-ethyl-8-(2-methylpyrimidin-5-yl)-9H-purin-6-amine], for which, in test [1], the “Selectivity versus PI3Kalpha” value is recorded as over 10. Moreover, the IC50 in test [2] was determined as 6.9 nM.

In the case of `CCn1c(-c2cnc(C)nc2)nc2c(NC3CCc4ncc(C5CC5)n4C3)ncnc21` (single isomer, unassigned) [Compound 4-2, (S or R)-N-(3-cyclopropyl-5,6,7,8-tetrahydroimidazo[1,2-a]pyridin-6-yl)-9-ethyl-8-(2-methylpyrimidin-5-yl)-9H-purin-6-amine], the “Selectivity versus PI3Kalpha” value in test [1] is over 10. Moreover, in test [2], the IC50 turned out to be 290 nM.

Consider `CCn1c(-c2cnc(C)nc2)nc2c(NC3CCc4ncc(C(C)C)n4C3)ncnc21` (single isomer, unassigned) [Compound 4-3, (S or R)-9-ethyl-N-[3-(1-methylethyl)-5,6,7,8-tetrahydroimidazo[1,2-a]pyridin-6-yl]-8-(2-methylpyrimidin-5-yl)-9H-purin-6-amine], for which, in test [1], the “Selectivity versus PI3Kalpha” value is over 10. Besides, the IC50 in test [2] came out at 2.8 nM.

Regarding `CCn1c(-c2cnc(C)nc2)nc2c(NC3CCc4ncc(C(C)C)n4C3)ncnc21` (single isomer, unassigned) [Compound 4-4, (S or R)-9-ethyl-N-[3-(1-methylethyl)-5,6,7,8-tetrahydroimidazo[1,2-a]pyridin-6-yl]-8-(2-methylpyrimidin-5-yl)-9H-purin-6-amine], in test [1], the “Selectivity versus PI3Kalpha” value is listed as over 10. Further, the half-inhibitory concentration (IC50) in test [2] came to 210 nM.

For the compound `CCn1c(-c2cnc(C)nc2)nc2c(NC3CCc4ncn(C5CC5)c4C3)ncnc21` (single isomer, unassigned) [Compound 5-1, (S or R)-N-(1-cyclopropyl-4,5,6,7-tetrahydro-1H-benzimidazol-6-yl)-9-ethyl-8-(2-methylpyrimidin-5-yl)-9H-purin-6-amine], the “Selectivity versus PI3Kalpha” value in test [1] was over 10. The IC50 in test [2] was found to be 5.5 nM.

Take `CCn1c(-c2ccc(C(F)(F)F)nc2)nc2c(NC3CCc4ncn(C5CC5)c4C3)ncnc21` (single isomer, unassigned) [Compound 5-2, (S or R)-N-(1-cyclopropyl-4,5,6,7-tetrahydro-1H-benzimidazol-6-yl)-9-ethyl-8-[6-(trifluoromethyl)pyridin-3-yl]-9H-purin-6-amine]: the “Selectivity versus PI3Kalpha” value in test [1] was over 10. For the same compound, the IC50 in test [2] was found to be 3.3 nM.

For the compound `CCn1c(-c2ccc(C(F)(F)F)nc2)nc2c(NC3CCc4ncn(C5CC5)c4C3)ncnc21` (single isomer, unassigned) [Compound 5-3, (S or R)-N-(1-cyclopropyl-4,5,6,7-tetrahydro-1H-benzimidazol-6-yl)-9-ethyl-8-[6-(trifluoromethyl)pyridin-3-yl]-9H-purin-6-amine], the “Selectivity versus PI3Kalpha” value in test [1] is given as over 10. In addition, the half-inhibitory concentration (IC50) in test [2] turned out to be 180 nM.

Take `CCn1c(-c2ccc(C(F)(F)F)cc2)nc2c(NC3CCc4ncn(C5CC5)c4C3)ncnc21` (single isomer, unassigned) [Compound 5-4, (S or R)-N-(1-cyclopropyl-4,5,6,7-tetrahydro-1H-benzimidazol-6-yl)-9-ethyl-8-[4-(trifluoromethyl)phenyl]-9H-purin-6-amine]: the “Selectivity versus PI3Kalpha” value in test [1] was over 10. The 50% inhibitory concentration (IC50) in test [2] was found to be 180 nM.

For `CCn1c(-c2ccc(C(F)(F)F)cc2)nc2c(NC3CCc4ncn(C5CC5)c4C3)ncnc21` (single isomer, unassigned) [Compound 5-5, (S or R)-N-(1-cyclopropyl-4,5,6,7-tetrahydro-1H-benzimidazol-6-yl)-9-ethyl-8-[4-(trifluoromethyl)phenyl]-9H-purin-6-amine], in test [1], the “Selectivity versus PI3Kalpha” value is over 10. The 50% inhibitory concentration (IC50) in test [2] came out at 5.1 nM.

Consider `CCn1c(C(F)F)nc2c(NC3CCc4ncn(C5CC5)c4C3)ncnc21` (single isomer, unassigned) [Compound 5-6, (S or R)-N-(1-cyclopropyl-4,5,6,7-tetrahydro-1H-benzimidazol-6-yl)-8-(difluoromethyl)-9-ethyl-9H-purin-6-amine], for which the “Selectivity versus PI3Kalpha” value in test [1] is reported as over 10. For the same compound, the IC50 in test [2] stood at 170 nM.

For the compound `CCn1c(-c2cnc(C)nc2)nc2c(NC3CCc4nc(C)n(C5CC5)c4C3)ncnc21` (single isomer, unassigned) [Compound 5-7, (S or R)-N-(1-cyclopropyl-2-methyl-4,5,6,7-tetrahydro-1H-benzimidazol-6-yl)-9-ethyl-8-(2-methylpyrimidin-5-yl)-9H-purin-6-amine], the “Selectivity versus PI3Kalpha” value in test [1] was over 10. The IC50 in test [2] amounted to 19 nM.

For the compound `CCc1nc2c(n1C1CC1)CC(Nc1ncnc3c1nc(-c1cnc(C)nc1)n3CC)CC2` (single isomer, unassigned) [Compound 5-8, (S or R)-N-(1-cyclopropyl-2-ethyl-4,5,6,7-tetrahydro-1H-benzimidazol-6-yl)-9-ethyl-8-(2-methylpyrimidin-5-yl)-9H-purin-6-amine], in test [1], the “Selectivity versus PI3Kalpha” value was over 10. In test [2], the half-maximal inhibitory concentration (IC50) is 21 nM.

As to `CCn1c(C(=O)NCC(F)(F)F)nc2c(NC3CCc4ncn(C5CC5)c4C3)ncnc21` (single isomer, unassigned) [Compound 5-9, (S or R)-6-[(1-cyclopropyl-4,5,6,7-tetrahydro-1H-benzimidazol-6-yl)amino]-9-ethyl-N-(2,2,2-trifluoroethyl)-9H-purine-8-carboxamide], the “Selectivity versus PI3Kalpha” value in test [1] is over 10. In test [2], the IC50 was 51 nM.

`CCn1c(-c2cnc(C)nc2)nc2c(NC3CCc4nc(C(F)F)n(C5CC5)c4C3)ncnc21` (single isomer, unassigned) [Compound 5-10, (S or R)-N-[1-cyclopropyl-2-(difluoromethyl)-4,5,6,7-tetrahydro-1H-benzimidazol-6-yl]-9-ethyl-8-(2-methylpyrimidin-5-yl)-9H-purin-6-amine]: the “Selectivity versus PI3Kalpha” value in test [1] is given as over 10. Moreover, the IC50 in test [2] is under 1 nM.

As to `CCn1c(-c2cnc(C)nc2)nc2c(NC3CCc4nc(C(F)F)n(C5CC5)c4C3)ncnc21` (single isomer, unassigned) [Compound 5-11, (S or R)-N-[1-cyclopropyl-2-(difluoromethyl)-4,5,6,7-tetrahydro-1H-benzimidazol-6-yl]-9-ethyl-8-(2-methylpyrimidin-5-yl)-9H-purin-6-amine], in test [1], the “Selectivity versus PI3Kalpha” value is recorded as over 10. Moreover, the IC50 in test [2] is 40 nM.

For `CCn1c(-c2cnc(C)nc2)nc2c(NC3CCc4ncn([C@H]5C[C@@H](OC)C5)c4C3)ncnc21` (single isomer, unassigned) [Compound 5-13, (S or R)-9-ethyl-N-[1-(cis-3-methoxycyclobutyl)-4,5,6,7-tetrahydro-1H-benzimidazol-6-yl]-8-(2-methylpyrimidin-5-yl)-9H-purin-6-amine], in test [1], the “Selectivity versus PI3Kalpha” value is over 10. For the same compound, in test [2], the half-maximal inhibitory concentration (IC50) worked out at 4.7 nM.

Regarding `CCn1c(-c2cnc(C)nc2)nc2c(NC3CCc4ncn([C@H]5C[C@@H](OC)C5)c4C3)ncnc21` (single isomer, unassigned) [Compound 5-14, (S or R)-9-ethyl-N-[1-(cis-3-methoxycyclobutyl)-4,5,6,7-tetrahydro-1H-benzimidazol-6-yl]-8-(2-methylpyrimidin-5-yl)-9H-purin-6-amine], the “Selectivity versus PI3Kalpha” value in test [1] was over 10. Moreover, in test [2], the concentration for half-maximal inhibition (IC50) was 230 nM.

Turning to `CCn1c(-c2cnc(C)nc2)nc2c(NC3CCc4ncn(C(C)C)c4C3)ncnc21` (single isomer, unassigned) [Compound 5-15, (S or R)-9-ethyl-N-[1-(1-methylethyl)-4,5,6,7-tetrahydro-1H-benzimidazol-6-yl]-8-(2-methylpyrimidin-5-yl)-9H-purin-6-amine], the “Selectivity versus PI3Kalpha” value in test [1] was over 10. The concentration for half-maximal inhibition (IC50) in test [2] worked out at 4.2 nM.

Take `CCn1c(-c2cnc(C)nc2)nc2c(NC3CCc4ncn(C(C)C)c4C3)ncnc21` (single isomer, unassigned) [Compound 5-16, (S or R)-9-ethyl-N-[1-(1-methylethyl)-4,5,6,7-tetrahydro-1H-benzimidazol-6-yl]-8-(2-methylpyrimidin-5-yl)-9H-purin-6-amine]: the “Selectivity versus PI3Kalpha” value in test [1] is given as over 10. Further, the half-inhibitory concentration (IC50) in test [2] was 384 nM.

With `CCn1c(-c2cnc(C)nc2)nc2c(NC3Cc4c(ncn4C(C)C)C(C)C3)ncnc21` (single isomer, unassigned) [Compound 5-17, 9-ethyl-N-[(4(S or R), 6(S or R)-4-methyl-1-(1-methylethyl)-4,5,6,7-tetrahydro-1H-benzimidazol-6-yl]-8-(2-methylpyrimidin-5-yl)-9H-purin-6-amine], the “Selectivity versus PI3Kalpha” value in test [1] is given as over 10. Besides, the IC50 in test [2] was determined as 9 nM.

`CCn1c(-c2cnc(C)nc2)nc2c(NC3Cc4c(ncn4C(C)C)C(C)C3)ncnc21` (single isomer, unassigned) [Compound 5-18, 9-ethyl-N-[(4(S or R), 6(S or R)-4-methyl-1-(1-methylethyl)-4,5,6,7-tetrahydro-1H-benzimidazol-6-yl]-8-(2-methylpyrimidin-5-yl)-9H-purin-6-amine]: in test [1], the “Selectivity versus PI3Kalpha” value was over 10. For the same compound, in test [2], the half-maximal inhibitory concentration (IC50) turned out to be 510 nM.

One may read the IC50 as the midpoint of a concentration-inhibition curve.
